These results are taken from PubChem BioAssay (NCI).

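Values below derive from 48-hour exposures of cells grown in 96-well plates, with endpoints linearly interpolated between the two concentrations bracketing the appropriate inhibition level. Here, GI50 denotes the concentration required for 50% inhibition of growth. At the TGI there is no net growth.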

For the first test, the system named is HS 578T breast. Kind of test: NCI-60 cell line screen, 48 h.
For `CCN1CCN(Cc2ccc(NC(=O)c3cccc(C#Cc4cccc5[nH]nc(N)c45)c3)cc2C(F)(F)F)CC1`, the GI50 is 0.518 µM and the TGI is 3.19 µM.

For the compound `OCCN(CCO)c1ncnc2c1ncn2Cc1ccc(CCl)cc1`, the GI50 is 16 µM and the TGI worked out at 36.9 µM.

In turn, `COc1ccc(CC2c3cc4c(cc3CCN2C)OCO4)c(C=O)c1OC` (stereo not given) gave a TGI above 100 µM.

Turning to `Nc1nc(-n2c(-c3ccccc3)nc3c(Br)cc(Br)cc3c2=O)nnc1-c1cccc(Cl)c1Cl`, the GI50 is 5.02 µM and the TGI was 41 µM.

`CC(C)=CCC\C(C)=C/C=C/C(C)=C\C=C\C(C)=C/C=C/C=C(C)\C=C\C=C(C)/C=C/C=C(/C)CCC=C(C)C`: the TGI is above 100 µM.

`Fc1ccc(NC(=S)SCc2ccc3c(c2)OCO3)cc1F` gave a TGI of 88.7 µM.

`CCOC(=O)Cn1c(C(F)(F)F)nc2nc(Cl)c(Cl)nc21` registered a TGI of 87.2 µM.

As to `OCc1cc2ccccc2c2c3c(ccc12)OCO3`, the GI50 is 29.8 µM and the TGI came out at 144 µM.

A further test concerns KM12 colon. Nature of the test: NCI-60 cell line screen, 48 h.
For `CCN1CCN(Cc2ccc(NC(=O)c3cccc(C#Cc4cccc5[nH]nc(N)c45)c3)cc2C(F)(F)F)CC1`, the GI50 is 0.302 µM and the TGI was found to be 1.33 µM.

On to `OCCN(CCO)c1ncnc2c1ncn2Cc1ccc(CCl)cc1`, for which the GI50 was 14.3 µM and the TGI was 29.2 µM.

`COc1ccc(CC2c3cc4c(cc3CCN2C)OCO4)c(C=O)c1OC` (stereo not given) came in with a TGI above 100 µM.

As to `Nc1nc(-n2c(-c3ccccc3)nc3c(Br)cc(Br)cc3c2=O)nnc1-c1cccc(Cl)c1Cl`, the GI50 is 3.29 µM and the TGI was found to be 63.4 µM.

Compound `CC(C)=CCC\C(C)=C/C=C/C(C)=C\C=C\C(C)=C/C=C/C=C(C)\C=C\C=C(C)/C=C/C=C(/C)CCC=C(C)C` came in with a TGI above 100 µM.

For `Fc1ccc(NC(=S)SCc2ccc3c(c2)OCO3)cc1F`, the TGI turned out to be 61.7 µM.

For `CCOC(=O)Cn1c(C(F)(F)F)nc2nc(Cl)c(Cl)nc21`, the TGI is 34 µM.

Regarding `OCc1cc2ccccc2c2c3c(ccc12)OCO3`, the GI50 is 35 µM and the TGI stood at 137 µM.

A further test deals with NCI-H23 lung. Nature of the test: NCI-60 cell line screen, 48 h.
As to `OCCN(CCO)c1ncnc2c1ncn2Cc1ccc(CCl)cc1`, the GI50 was 18.3 µM and the TGI was 37.1 µM.

`COc1ccc(CC2c3cc4c(cc3CCN2C)OCO4)c(C=O)c1OC` (stereo not given): the TGI was above 100 µM.

Turning to `Nc1nc(-n2c(-c3ccccc3)nc3c(Br)cc(Br)cc3c2=O)nnc1-c1cccc(Cl)c1Cl`, the GI50 was 15.7 µM and the TGI is 53.1 µM.

The compound `Fc1ccc(NC(=S)SCc2ccc3c(c2)OCO3)cc1F` displayed a TGI of 51.6 µM.

For `CCOC(=O)Cn1c(C(F)(F)F)nc2nc(Cl)c(Cl)nc21`, the TGI is above 87.4 µM.

`OCc1cc2ccccc2c2c3c(ccc12)OCO3`: the GI50 was 34.1 µM and the TGI turned out to be 221 µM.

The test system of another test is SK-MEL-2 melanoma. Nature of the test: NCI-60 cell line screen, 48 h.
Regarding `CCN1CCN(Cc2ccc(NC(=O)c3cccc(C#Cc4cccc5[nH]nc(N)c45)c3)cc2C(F)(F)F)CC1`, the GI50 is 0.352 µM and the TGI stood at 1.34 µM.

With `OCCN(CCO)c1ncnc2c1ncn2Cc1ccc(CCl)cc1`, the GI50 was 16.5 µM and the TGI stood at 41.1 µM.

On to `COc1ccc(CC2c3cc4c(cc3CCN2C)OCO4)c(C=O)c1OC` (stereo not given), for which the TGI is above 100 µM.

For the compound `Nc1nc(-n2c(-c3ccccc3)nc3c(Br)cc(Br)cc3c2=O)nnc1-c1cccc(Cl)c1Cl`, the GI50 was 83.8 µM and the TGI is above 100 µM.

On to `CC(C)=CCC\C(C)=C/C=C/C(C)=C\C=C\C(C)=C/C=C/C=C(C)\C=C\C=C(C)/C=C/C=C(/C)CCC=C(C)C`, for which the TGI is above 100 µM.

With `Fc1ccc(NC(=S)SCc2ccc3c(c2)OCO3)cc1F`, the TGI was determined as 36 µM.

On to `CCOC(=O)Cn1c(C(F)(F)F)nc2nc(Cl)c(Cl)nc21`, for which the TGI was determined as 60.2 µM.

Regarding `OCc1cc2ccccc2c2c3c(ccc12)OCO3`, the GI50 is 32.2 µM and the TGI was 84.9 µM.

The next test relates to HCC-2998 colon. Nature of the test: NCI-60 cell line screen, 48 h.
`OCCN(CCO)c1ncnc2c1ncn2Cc1ccc(CCl)cc1`: the GI50 is 15.4 µM and the TGI is 28.9 µM.

Compound `COc1ccc(CC2c3cc4c(cc3CCN2C)OCO4)c(C=O)c1OC` (stereo not given) had a TGI above 100 µM.

On to `Nc1nc(-n2c(-c3ccccc3)nc3c(Br)cc(Br)cc3c2=O)nnc1-c1cccc(Cl)c1Cl`, for which the GI50 is 3.42 µM and the TGI turned out to be 15.5 µM.

For the compound `CC(C)=CCC\C(C)=C/C=C/C(C)=C\C=C\C(C)=C/C=C/C=C(C)\C=C\C=C(C)/C=C/C=C(/C)CCC=C(C)C`, the TGI is above 100 µM.

As to `Fc1ccc(NC(=S)SCc2ccc3c(c2)OCO3)cc1F`, the TGI was found to be 71.5 µM.

As to `OCc1cc2ccccc2c2c3c(ccc12)OCO3`, the GI50 is 37.8 µM and the TGI is 232 µM.

Another test has as its system RXF 393 renal. Nature of the test: NCI-60 cell line screen, 48 h.
Take `CCN1CCN(Cc2ccc(NC(=O)c3cccc(C#Cc4cccc5[nH]nc(N)c45)c3)cc2C(F)(F)F)CC1`: the GI50 is 0.287 µM and the TGI amounted to 0.918 µM.

As for `OCCN(CCO)c1ncnc2c1ncn2Cc1ccc(CCl)cc1`, the GI50 was 12 µM and the TGI amounted to 37.1 µM.

Take `Nc1nc(-n2c(-c3ccccc3)nc3c(Br)cc(Br)cc3c2=O)nnc1-c1cccc(Cl)c1Cl`: the GI50 was 14.5 µM and the TGI stood at 58.1 µM.

`CC(C)=CCC\C(C)=C/C=C/C(C)=C\C=C\C(C)=C/C=C/C=C(C)\C=C\C=C(C)/C=C/C=C(/C)CCC=C(C)C` returned a TGI above 100 µM.

`Fc1ccc(NC(=S)SCc2ccc3c(c2)OCO3)cc1F` showed a TGI of 32.2 µM.

`CCOC(=O)Cn1c(C(F)(F)F)nc2nc(Cl)c(Cl)nc21` came in with a TGI above 100 µM.

Another test has as its system MDA-MB-435. Kind of test: NCI-60 cell line screen, 48 h.
In the case of `CCN1CCN(Cc2ccc(NC(=O)c3cccc(C#Cc4cccc5[nH]nc(N)c45)c3)cc2C(F)(F)F)CC1`, the GI50 was 0.339 µM and the TGI is 1.57 µM.

In the case of `OCCN(CCO)c1ncnc2c1ncn2Cc1ccc(CCl)cc1`, the GI50 is 14.5 µM and the TGI worked out at 29.3 µM.

With `COc1ccc(CC2c3cc4c(cc3CCN2C)OCO4)c(C=O)c1OC` (stereo not given), the TGI was above 100 µM.

On to `Nc1nc(-n2c(-c3ccccc3)nc3c(Br)cc(Br)cc3c2=O)nnc1-c1cccc(Cl)c1Cl`, for which the GI50 is 2.18 µM and the TGI was determined as 6.81 µM.

As to `CC(C)=CCC\C(C)=C/C=C/C(C)=C\C=C\C(C)=C/C=C/C=C(C)\C=C\C=C(C)/C=C/C=C(/C)CCC=C(C)C`, the TGI is above 100 µM.

In the case of `Fc1ccc(NC(=S)SCc2ccc3c(c2)OCO3)cc1F`, the TGI worked out at 51.8 µM.

With `CCOC(=O)Cn1c(C(F)(F)F)nc2nc(Cl)c(Cl)nc21`, the TGI was above 100 µM.

As for `OCc1cc2ccccc2c2c3c(ccc12)OCO3`, the GI50 is 39.3 µM and the TGI came out at 160 µM.

Another test has as its system RPMI-8226 leukemia. Kind of test: NCI-60 cell line screen, 48 h.
`CCN1CCN(Cc2ccc(NC(=O)c3cccc(C#Cc4cccc5[nH]nc(N)c45)c3)cc2C(F)(F)F)CC1`: the GI50 was 0.702 µM and the TGI was determined as 3.04 µM.

For `OCCN(CCO)c1ncnc2c1ncn2Cc1ccc(CCl)cc1`, the GI50 was 17.2 µM and the TGI was above 100 µM.

Consider `COc1ccc(CC2c3cc4c(cc3CCN2C)OCO4)c(C=O)c1OC` (stereo not given), for which the TGI was above 100 µM.

As for `Nc1nc(-n2c(-c3ccccc3)nc3c(Br)cc(Br)cc3c2=O)nnc1-c1cccc(Cl)c1Cl`, the GI50 was 6.05 µM and the TGI was above 100 µM.

As to `CCOC(=O)Cn1c(C(F)(F)F)nc2nc(Cl)c(Cl)nc21`, the TGI worked out at 26.7 µM.

For `OCc1cc2ccccc2c2c3c(ccc12)OCO3`, the GI50 was 26.2 µM and the TGI is 94.4 µM.

A further test has as its system HL-60(TB) leukemia. Nature of the test: NCI-60 cell line screen, 48 h.
`CCN1CCN(Cc2ccc(NC(=O)c3cccc(C#Cc4cccc5[nH]nc(N)c45)c3)cc2C(F)(F)F)CC1`: the GI50 was 0.0979 µM and the TGI came out at 1.04 µM.

Turning to `COc1ccc(CC2c3cc4c(cc3CCN2C)OCO4)c(C=O)c1OC` (stereo not given), the TGI was above 100 µM.

In turn, `CC(C)=CCC\C(C)=C/C=C/C(C)=C\C=C\C(C)=C/C=C/C=C(C)\C=C\C=C(C)/C=C/C=C(/C)CCC=C(C)C` registered a TGI above 100 µM.

`Fc1ccc(NC(=S)SCc2ccc3c(c2)OCO3)cc1F` showed a TGI of 42.6 µM.

In turn, `CCOC(=O)Cn1c(C(F)(F)F)nc2nc(Cl)c(Cl)nc21` registered a TGI of 42.9 µM.

In the case of `OCc1cc2ccccc2c2c3c(ccc12)OCO3`, the GI50 is 23.7 µM and the TGI turned out to be 66.2 µM.

The test system of the next test is OVCAR-5 ovarian. Nature of the test: NCI-60 cell line screen, 48 h.
Take `CCN1CCN(Cc2ccc(NC(=O)c3cccc(C#Cc4cccc5[nH]nc(N)c45)c3)cc2C(F)(F)F)CC1`: the GI50 is 0.685 µM and the TGI stood at 2.07 µM.

For the compound `OCCN(CCO)c1ncnc2c1ncn2Cc1ccc(CCl)cc1`, the GI50 was 14.1 µM and the TGI amounted to 27.8 µM.

Regarding `COc1ccc(CC2c3cc4c(cc3CCN2C)OCO4)c(C=O)c1OC` (stereo not given), the TGI was above 100 µM.

Consider `Nc1nc(-n2c(-c3ccccc3)nc3c(Br)cc(Br)cc3c2=O)nnc1-c1cccc(Cl)c1Cl`, for which the GI50 is 6.22 µM and the TGI is 50.9 µM.

`CC(C)=CCC\C(C)=C/C=C/C(C)=C\C=C\C(C)=C/C=C/C=C(C)\C=C\C=C(C)/C=C/C=C(/C)CCC=C(C)C` gave a TGI above 100 µM.

In turn, `Fc1ccc(NC(=S)SCc2ccc3c(c2)OCO3)cc1F` had a TGI of 46.3 µM.

Consider `CCOC(=O)Cn1c(C(F)(F)F)nc2nc(Cl)c(Cl)nc21`, for which the TGI is above 100 µM.

On to `OCc1cc2ccccc2c2c3c(ccc12)OCO3`, for which the GI50 is 40.9 µM and the TGI is 207 µM.
